The results in this text go back to patent US20180098969A1, “HODGKIN LYMPHOMA THERAPY” (Purdue Pharmaceutical Products L.P., priority 2016, published 2018).

One data set has as its system L1236-R100. As to the kind of experiment: Viable cell count and IC50, bendamustine-resistant line. In kind it is cell-based, human. On the procedure:
(b) The bendamustine-resistant Hodgkin lymphoma cell line L1236-R100, non-resistant L1236 Hodgkin lymphoma cell line cultured in DMSO L1236/DMSO and L1236 […] Control cells were cultured in the same final concentration of DMSO. The number of viable cells was assessed at 24, 48 and 72 hours through a Countess™ automated cell counter (Invitrogen), each experiment being repeated three times and the results given being the mean of the three results ±SD.

Data set [1] in a line: Weight of xenografted mice. Type of data set: in vivo, NSG mice. On the procedure: (§1) Two independent experiments were performed to investigate the dose-effect of EDO-S101 in NSG mice eight weeks after xenografting with L428 cells as in Example 8. The aim of the protocol shown in FIG. 8B was to evaluate the effect of sequential treatment with a moderate dose of 60 mg/kg given at an interval of three weeks.
This weight loss was also observed in mice treated with the vehicle. In contrast, the weight of the control mice receiving only freshly prepared phosphate buffered saline (PBS) buffered to 7.3-7.4 increased up to 11 weeks and then started to decrease.
The toxicity of the dose of 80 mg/kg compared to 60 mg/kg was investigated, as compared to the control groups vehicle and PBS.

The subject of another data set is L428 cells. As to the kind of experiment: Orbital tumour mass at injection site in xenografted mice. In kind it is in vivo, NSG mice. As to conditions: after injection. On the procedure: as §1
Some mice developed an orbital tumour mass at the site of the injection. […] In one mouse only that was treated with two doses of 60 mg/kg of EDO-S101, a regression of the orbital tumour was initially observed followed by re-establishment of the orbital mass 3 weeks later. However, this was the only instance observed of re-establishment of the orbital mass after treatment with EDO-S101 at either concentration.

Another data set concerns CD14 cells. The data set can be described thus: CD14-positive cells by flow cytometry in xenografted mice. Type of data set: in vivo, NSG mice. On the procedure: Cells were gated to exclude apoptotic or necrotic cells and sorted into CD30−/CD15− and CD30+ and CD15+/CD30+ fractions by gating on the lowest and highest 5% PE-expressing cells, respectively. Following sorting, the CD30−/CD15− cell fractions were analyzed using a FACScan flow cytometer (Becton Dickinson) and found to be more than 98% pure. For phenotypic analyses of cell lines or sorted cells, cells were prepared as described, and then stained with mouse anti-human CD30-phycoerthrin (PE), CD15-fluorescein isothyocyanate (FITC), CD14-APC-cyanine 7 (Cy7) and CD45-APC (all antibodies from BD PharMingen, San Diego, Calif.). […] Cells were subsequently analysed using a FACS LSRII (Becton Dickinson, Franklin Lakes, N.J.). […]
Novel biomarkers CD68 and CD14 which are expressed by tumour associated macrophages and myeloid derived suppressor cells respectively in the microenvironment have recently been reported to affect the prognosis of Hodgkin lymphoma (Haematologica, 2011 Feb; 96(2): 186-189). The presence of the CD14-positive cells following administration of a single dose of EDO-S101 (60 mg/kg or 80 mg/kg) and after two administrations of EDO-S101 at 60 mg/kg was evaluated using flow cytometry with anti CD14 antibodies.
For orientation: Flow cytometry measures light scatter and fluorescence of single cells or particles in a stream.

Take `Cn1c(CCCCCCC(=O)NO)nc2cc(N(CCCl)CCCl)ccc21` [EDO-S101]: in the data set on L1236-R100, the “anti-proliferative activity compared with vorinostat” value was “greater than that of vorinostat”. For the same compound, in the data set on L1236-R100 (48 hours after treatment with 50 μM), the viable cells entry was “no viable cells being observed”. Also, in data set [1] (60 mg/kg versus 80 mg/kg), the “difference between weight losses” value is recorded as “no significant difference”. For the same compound, in data set [1] (mouse, in vivo), the “weight of the mice or the different organs” value was “No significant difference”. Also, in data set [1] (two doses of 60 mg/kg three weeks apart), the “weight of the mice” value is listed as “weight loss following each administration which was regained after several weeks”. Further, the orbital tumour mass entry in the data set on L428 cells is listed as “signification regression”. Also, the “frequency of CD14 cells” value is “higher frequency following treatment with 2×60 mg/kg than treatment with a single dose of 80 mg/kg” in the data set with CD14 cells (2×60 mg/kg versus single 80 mg/kg) and “significantly higher frequency of CD14 cells in untreated mice compared to treated mice” in the data set on CD14 cells (treated versus untreated mice).
